One assay has as its system TK-10. Briefly: Cytotoxicity against human TK-10 cells assessed as cell growth at 10 uM after 48 hrs by sulforhodamine B assay relative to control. Type of assay: functional. The note with it: read-out: Activity. For orientation: Sulforhodamine B stains cellular protein and so reports cell mass.
Assay [1] concerns Panel NCI-60 (60 carcinoma cell lines). Kind of assay: Cytotoxicity against human Panel NCI-60 (60 carcinoma cell lines) assessed as cell growth at 10 uM after 48 hrs by sulforhodamine B assay relative to control. The assay is classed as functional. The note with it: read-out: Activity.
A further assay deals with SR. Kind of assay: Cytotoxicity against human SR cells assessed as cell growth at 10 uM after 48 hrs by sulforhodamine B assay relative to control. The note with it: read-out: Activity. The assay is classed as functional.
The subject of the next assay is MOLT-4. Briefly: Cytotoxicity against human MOLT-4 cells assessed as cell growth at 10 uM after 48 hrs by sulforhodamine B assay relative to control. The assay is classed as functional. The note with it: read-out: Activity.
Another assay relates to COLO 205. Briefly: Cytotoxicity against human COLO 205 cells assessed as cell growth at 10 uM after 48 hrs by sulforhodamine B assay relative to control. Type of assay: functional. The note with it: read-out: Activity.
Another assay concerns SK-OV-3. Kind of assay: Cytotoxicity against human SK-OV-3 cells assessed as cell growth at 10 uM after 48 hrs by sulforhodamine B assay relative to control. The assay is classed as functional. The note with it: read-out: Activity.
The test system of the next assay is NCI/ADR-RES. Briefly: Cytotoxicity against human NCI/ADR-RES cells assessed as cell growth at 10 uM after 48 hrs by sulforhodamine B assay relative to control. The assay is classed as functional. The note with it: read-out: Activity.
Another assay concerns leukaemia cell line. Kind of assay: Cytotoxicity against human leukaemia cell line assessed as cell growth inhibition measured after 48 hrs by sulforhodamine B assay. The assay is classed as functional. The note with it: for CC50: read-out: LC50 (the source's name).
The nature of assay [2]: (§1) Inhibition of porcine brain tubulin polymerization incubated for 60 mins by spectrophotometry. The assay is classed as tissue-based, Sus scrofa.
Assay [3] relates to Panel NCI-60 (60 carcinoma cell lines). Kind of assay: Cytotoxicity against human Panel NCI-60 (60 carcinoma cell lines) assessed as cell growth inhibition measured after 48 hrs by sulforhodamine B assay. The assay is classed as functional.
The species entered for another assay is Sus scrofa. Described as §1. The assay is classed as tissue-based.

Active and inactive are the calls of the source. No cut-off for these calls is given here. Where only a bound is given, the exact number is not on record here.

Consider `O=S(=O)(c1ccc(-c2cnc(C3CC3)o2)cc1)N1CCOCC1`, for which the growth at 10 µM with TK-10 amounted to 101%; in assay [1], 94.2%; with SR, 91.3%; in the assay with MOLT-4, 95.3%; in the assay with COLO 205 it was 95%; in the assay with SK-OV-3 it was 112%. Also, the growth at 10 µM in the assay with NCI/ADR-RES worked out at 93.5%.

With `O=S(=O)(Nc1ccc(F)cc1)c1ccc(-c2cnc(C3CC3)o2)cc1`, the growth at 10 µM with TK-10 stood at 32.5%; in assay [1], 28.1%; in the assay on SR, 11.6%; in the assay with MOLT-4, 12.7%; in the assay on COLO 205, 20.2%; in the assay with SK-OV-3, 39.7%. Besides, in the assay with NCI/ADR-RES, the growth at 10 µM is -0.9%.

What is called GI50 is the concentration at which growth is held to half of that of the control. As a reminder, the TGI is the concentration giving total growth inhibition. For orientation: IC50 means the concentration needed to halve the response being measured. For the molecule `O=S(=O)(Nc1ccc(Br)c(Cl)c1)c1ccc(-c2cnc(C3CC3)o2)cc1`, in assay [1], the growth at 10 µM came out at 21.5%. For the same molecule, in the assay on leukaemia cell line, the GI50 was found to be 491 nM, the concentration for total growth inhibition (TGI) was found to be 70300 nM and the CC50 was greater than 100000 nM. Also, in assay [2], the IC50 is less than 80 nM.

For the molecule `O=S(=O)(Nc1ccc(Cl)c(Cl)c1)c1ccc(-c2cnc(C3CC3)o2)cc1`, the growth at 10 µM in assay [1] came out at 25.3%. In addition, in the assay on leukaemia cell line, the GI50 was 416 nM, the TGI was 62100 nM and the CC50 was greater than 100000 nM. In addition, the IC50 in assay [2] is less than 80 nM.

On to `Cc1cc(NS(=O)(=O)c2ccc(-c3cnc(C4CC4)o3)cc2)ccc1Cl`, for which, in [1], the growth at 10 µM was found to be 21.7%. Besides, in the assay with leukaemia cell line, the GI50 turned out to be 216 nM, the TGI worked out at 33400 nM and the CC50 is greater than 100000 nM. The IC50 in assay [2] is less than 80 nM.

For `CS(=O)(=O)CCNS(=O)(=O)c1ccc(-c2cnc(C3CC3)o2)cc1`, the growth at 10 µM with TK-10 worked out at 99.1%; in assay [1] it was 94.1%; with SR it was 80.3%; with MOLT-4, 94.1%; in the assay with COLO 205, 94.4%; in the assay with SK-OV-3, 105%. For the same molecule, the growth at 10 µM in the assay on NCI/ADR-RES was 94.1%.

On to `O=S(=O)(Nc1ccc(Cl)cc1)c1ccc(-c2cnc(C3CC3)o2)cc1`, for which the growth at 10 µM with TK-10 was found to be 54.2%; in assay [1] it was 24.3%; in the assay with SR, 9.9%; with MOLT-4 it was 14.2%; in the assay on COLO 205, 9%; with SK-OV-3, 30.2%. Moreover, in the assay on NCI/ADR-RES, the growth at 10 µM worked out at 4.4%. Moreover, the GI50 in [3] amounted to 1430 nM. In addition, in assay [3], the LC50 (concentration causing 50% net cell kill) is 57400 nM.

For the molecule `O=S(=O)(Nc1ccc2ccccc2c1)c1ccc(-c2cnc(C3CC3)o2)cc1`, the growth at 10 µM in the assay with TK-10 amounted to 61.9%; in [1], 28.9%; with SR, 16.5%; in the assay on MOLT-4, 20.2%; in the assay on COLO 205, 1.5%; with SK-OV-3, 32.7%. Also, in the assay on NCI/ADR-RES, the growth at 10 µM amounted to 9.7%. The GI50 in assay [3] was determined as 1840 nM. The LC50 (concentration causing 50% net cell kill) in [3] came to 78600 nM.

As to `CC(=O)O[C@H]1C(=O)[C@@]2(C)[C@H]([C@H](OC(=O)c3ccccc3)[C@]3(O)C[C@H](OC(=O)[C@H](O)[C@@H](NC(=O)c4ccccc4)c4ccccc4)C(C)=C1C3(C)C)[C@]1(OC(C)=O)CO[C@@H]1C[C@@H]2O`, the inhibition result in the assay filed under Sus scrofa was “inactive”.

`O=S(=O)(Nc1ccc(Br)cc1)c1ccc(-c2cnc(C3CC3)o2)cc1`: the growth at 10 µM in the assay on TK-10 was determined as 64.1%; in assay [1] it was 26.9%; with SR it was 12.7%; in the assay with MOLT-4 it was 15.8%; in the assay on COLO 205, 23.9%; in the assay on SK-OV-3 it was 35.5%. The growth at 10 µM with NCI/ADR-RES was -2.2%. Moreover, the GI50 in assay [3] stood at 2750 nM. For the same molecule, the LC50 (concentration causing 50% net cell kill) in [3] is 54000 nM.

For `O=S(=O)(Nc1ccc(Cl)c(C(F)(F)F)c1)c1ccc(-c2cnc(C3CC3)o2)cc1`, the growth at 10 µM came to 3% with TK-10; 11.4% in assay [1]; 3.5% in the assay on SR; 5.2% in the assay on MOLT-4; 2.7% in the assay on COLO 205; 0.8% with SK-OV-3. The growth at 10 µM in the assay on NCI/ADR-RES was determined as 2.9%. The GI50 in assay [3] stood at 655 nM. Further, the LC50 (concentration causing 50% net cell kill) in assay [3] stood at 55400 nM. The IC50 in [2] stood at 220 nM.

Regarding `O=S(=O)(NCC(F)F)c1ccc(-c2cnc(C3CC3)o2)cc1`, the growth at 10 µM in the assay with TK-10 stood at 104%; in assay [1], 92.2%; in the assay on SR, 89.3%; with MOLT-4 it was 82.5%; with COLO 205, 94.5%; with SK-OV-3, 101%. Further, the growth at 10 µM with NCI/ADR-RES worked out at 92.3%.

The values are drawn from ChEMBL document CHEMBL4814080, “Design, Synthesis, and Biological Evaluation of Novel 1,3-Oxazole Sulfonamides as Tubulin Polymerization Inhibitors” (ACS Med Chem Lett, 2021).
